Experimental data as given in patent publication US10413555B2, “Treatment of skin atrophy with a combination of triiodothyroacetic acid (TRIAC) and dehydroepiandrosterone (DHEA)” (TROPHEA DEVELOPMENT AB, priority 2014, dated 2019).
Where two headings read alike, the source gives them in different places.

Key:
thyroid hormone levels = conditions: cited from earlier work
procollagen I and III = conditions: cited from earlier work
rats [1] = conditions: cited from earlier work
[2] = tested on: patients with skin atrophy on the dorsum of their hands; conditions: cited from earlier work
Ames' test = assay type: cell-based
Description: (§1) The genotoxic potential of TRIAC has been investigated in the Ames' test and in in vitro chromosome aberration assay in cultured human peripheral lymphocytes.

psoriasis = conditions: TRIAC 0.1% ointment; cited from earlier work
mice = conditions: cited from earlier work
rats [3] = conditions: rat, in vivo, 2000 mg/kg; cited from earlier work
metabolic effects = conditions: cited from earlier work
[4] = tested on: cultured human peripheral lymphocytes; assay: In vitro chromosome aberration assay; assay type: cell-based
Description: as §1

[5] = topical corticosteroid, Group III; cited from earlier work
post-menopausal women = conditions: DHEA 1% formulation, topical, facial and hand skin, 4 months, versus vehicle; cited from earlier work
elderly people = conditions: oral route; cited from earlier work
Procollagen I (PINP) = assay: PINP in suction blister fluid from skin pretreated with betamethasone valerate, then treated with test formulations; assay type: in vivo, human; conditions: suction blister fluid after 14 days treatment
Description: Six healthy male volunteers aged 40-65 years. Criteria for exclusion are: treatment with systemic or topical glucocorticoids, ongoing serious infections, immunosuppression.
TRIAC and DHEA were obtained from Sigma. They were mixed with Essex cream (Merck) to obtain 4 different study formulations: • A. 0.03% TRIAC in Essex cream • B. 0.03% TRIAC and 2% DHEA in Essex cream • C. Essex cream alone. • D. 2% DHEA in Essex cream
A proof-of-concept, single blinded, open prospective study comparing, TRIAC, DHEA and the combination of the two as compared with non-active treatment on short-term glucocorticoid-induced skin atrophy.
The test area was normal looking abdominal skin in 6 male volunteers. Four different skin areas of 10×10 cm were marked with a permanent marker pen.
All areas were pretreated twice daily with betametasone valerate (Betnovate, GSK) 0.5 gr twice daily for 21 days. Then each test area was treated, with 0.5 gr twice daily of one of the test formulations, for 14 days.
Suction blisters were induced with a disposable device (Dermovac, Ventipress, Lappeeranta, Finland) placed on the test areas and connected to a vacuum pump with a vacuum of approximately 60 mm Hg. Each device produces five suction blisters within approximately one hour. The resulting fluid was collected, using a syringe, and then combined and frozen at −70° C. […]

O=C(O)Cc1cc(I)c(Oc2ccc(O)c(I)c2)c(I)c1 [TRIAC, triiodothyroacetic acid]
effects on thyroid hormone levels (thyroid hormone levels; all 3 clinical studies, after 8 weeks treatment): no significant effects
other blood analysis (thyroid hormone levels; clinical studies (15-16)): normal levels
procollagen I and III compared to placebo (procollagen I and III; TRIAC 0.03% and 0.1% cream, both groups, 7 days after start of treatment, pre-treatment with topical betamethasone 17-valerate): statistically significant increase
PINP synthesis compared to placebo (procollagen I and III; TRIAC 0.03% cream, healthy volunteers, skin pretreated with betamethasone valerate): significantly more effective
lowest lethal dose (rats [1]; rat, in vivo, ip): 100 mg/kg
LD50 (rats [1]; single dose, intraperitoneal, female rats): 295 mg/kg
LD50 (rats [1]; single dose, intraperitoneal, male rats): 143 mg/kg
no observed effect level (NOEL) (rats [1]; single dose, intraperitoneal, suspended in 0.8% hydroxyl propyl methylcellulose gel, rats): 46.4 mg/kg
skin thickness in epidermis and dermis ([2]; TRIAC 0.1% cream, after 8 weeks of treatment): significantly higher
effect on glucocorticoid-induced skin atrophy ([2]; topical, patients treated with potent topical corticosteroids for hand eczema): appears to reverse glucocorticoid-induced skin atrophy
genotoxic potential (Ames' test): no genotoxic potential
effect on psoriasis in comparison with placebo (psoriasis): no statistically significant effects
safety of topical treatment (psoriasis): safe
skin thickness in mice pretreated with betamethasone valerate (mice; TRIAC alone, 0.03%): could restore skin thickness
effect on skin atrophy induced by potent topical glucocorticoids (mice; topical administration, mice): prevents skin atrophy
skin thickness of normal skin (mice; topical, mice): increase skin thickness
side effects (mice; topical, compared with vitamin A and D derivatives): no side effects were seen
general toxicity and local irritation (rats [3]): neither any clinical signs of general toxicity nor any local irritation
dose necessary to obtain similar metabolic effects, relative to T3 (metabolic effects; human, in vivo): greater than 15 times
dose necessary to obtain similar metabolic effects, relative to T4 (metabolic effects; human, in vivo): > 10 times
tachycardia compared with T4 or T3 (metabolic effects; human, in vivo): does not evoke tachycardia as effectively as T4 or T3
tolerability (metabolic effects; oral administration, daily doses of 3.4 mg, up to 3 weeks): well tolerated
genotoxic potential [4]: no genotoxic potential

CCCCC(=O)O[C@]1(C(=O)CO)[C@@H](C)C[C@H]2[C@@H]3CCC4=CC(=O)C=C[C@]4(C)[C@@]3(F)[C@@H](O)C[C@@]21C [Betamethasone valerate]
potency relative to hydrocortisone [5]: 50-100 times

C[C@]12CC[C@H](O)CC1=CC[C@@H]1[C@@H]2CC[C@]2(C)C(=O)CC[C@@H]12 [DHEA, dehydroepiandrosterone]
effect on skin aging features (post-menopausal women): improved skin brightness and counteract papery appearance of the skin and epidermal atrophy
effect on skin conditions (elderly people): positive effect
PINP concentration, comparison between treatments (Procollagen I (PINP)): only slightly better than treatment with placebo
